Results taken from US20230233569A1 (Revolution Medicines, Inc., priority 2020, published 2023).
pIC50: −log10 of the molar value.

How the values were obtained:
KRAS G12D [1] = target: T1, KRAS G12D (Homo sapiens, UniProt P01116+P62937, G12D); assay: Ras-Raf disruption / FRET / MOA assay (BRAF RBD); assay type: biochemical; conditions: Ras-Raf disruption, with Cyclophilin A; read-out: KRAS G12D FRET data IC50
In short: (§1)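 TR-FRET in 25 mM HEPES pH 7.3, 100 mM NaCl, 5 mM MgCl2, 0.1% BSA, 0.002% Tween20 with 25 μM Cyclophilin A, 12.5 nM His6-Ras-GMPPNP, 50 nM GST-BRAF RBD; compound 10-point 3-fold series from 30 μM. After 3 h at 25 °C, Eu anti-His/APC anti-GST added for 1.5 h; IC50 from ratio decrease versus DMSO.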

KRAS G12S [2] = target: T2, KRAS G12S (Homo sapiens, UniProt P01116+P62937, G12S); assay: Ras-Raf disruption / FRET / MOA assay (BRAF RBD); assay type: biochemical; conditions: Ras-Raf disruption, with Cyclophilin A; read-out: KRAS G12S FRET data IC50
In short: as §1

KRAS G12V [3] = target: T3, KRAS G12V (Homo sapiens, UniProt P01116+P62937, G12V); assay: Ras-Raf disruption / FRET / MOA assay (BRAF RBD); assay type: biochemical; conditions: Ras-Raf disruption, with Cyclophilin A; read-out: KRAS G12V FRET data IC50
In short: as §1

KRAS G13C [4] = target: T4, KRAS G13C (Homo sapiens, UniProt P01116+P62937, G13C); assay: Ras-Raf disruption / FRET / MOA assay (BRAF RBD); assay type: biochemical; conditions: Ras-Raf disruption, with Cyclophilin A; read-out: KRAS G13C FRET data IC50
In short: as §1
Target sequence in this assay (P01116 1-169 isoform P01116-2 G13C limits assumed): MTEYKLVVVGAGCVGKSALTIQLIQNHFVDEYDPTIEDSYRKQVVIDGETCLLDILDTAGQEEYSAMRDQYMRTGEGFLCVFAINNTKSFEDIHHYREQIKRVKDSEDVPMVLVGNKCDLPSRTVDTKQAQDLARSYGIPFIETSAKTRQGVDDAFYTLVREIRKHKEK
Target sequence in this assay (P62937 whole entry): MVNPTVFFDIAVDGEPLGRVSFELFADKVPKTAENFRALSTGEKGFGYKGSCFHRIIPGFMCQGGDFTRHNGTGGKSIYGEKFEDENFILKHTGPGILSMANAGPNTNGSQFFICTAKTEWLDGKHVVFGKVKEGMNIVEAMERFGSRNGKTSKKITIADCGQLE

KRAS G13D [5] = target: T5, KRAS G13D (Homo sapiens, UniProt P01116+P62937, G13D); assay: Ras-Raf disruption / FRET / MOA assay (BRAF RBD); assay type: biochemical; conditions: Ras-Raf disruption, with Cyclophilin A; read-out: KRAS G13D FRET data IC50
In short: as §1

KRAS Q61H [6] = target: T6, KRAS Q61H (Homo sapiens, UniProt P01116+P62937, Q61H); assay: Ras-Raf disruption / FRET / MOA assay (BRAF RBD); assay type: biochemical; conditions: KRAS Q61H; read-out: KRAS Q61H FRET data IC50
In short: as §1

KRAS WT [7] = target: T7, KRAS WT (Homo sapiens, UniProt P01116+P62937); assay: Ras-Raf disruption / FRET / MOA assay (BRAF RBD); assay type: biochemical; conditions: Ras-Raf disruption, with Cyclophilin A; read-out: KRAS WT FRET data IC50
In short: as §1

NRAS G12C [8] = target: T8, NRAS G12C (Homo sapiens, UniProt P01111+P62937, G12C); assay: Ras-Raf disruption / FRET / MOA assay (BRAF RBD); assay type: biochemical; conditions: NRAS G12C; read-out: NRAS G12C FRET data IC50
In short: as §1

NRAS Q61K [9] = target: T9, NRAS Q61K (Homo sapiens, UniProt P01111+P62937, Q61K); assay: Ras-Raf disruption / FRET / MOA assay (BRAF RBD); assay type: biochemical; conditions: NRAS Q61K; read-out: NRAS Q61K FRET data IC50
In short: as §1

NRAS Q61R [10] = target: T10, NRAS Q61R (Homo sapiens, UniProt P01111+P62937, Q61R); assay: Ras-Raf disruption / FRET / MOA assay (BRAF RBD); assay type: biochemical; conditions: NRAS Q61R; read-out: NRAS Q61R FRET data IC50
In short: as §1

NRAS WT [11] = target: T11, NRAS WT (Homo sapiens, UniProt P01111+P62937); assay: Ras-Raf disruption / FRET / MOA assay (BRAF RBD); assay type: biochemical; conditions: NRAS WT; read-out: NRAS WT FRET data IC50
In short: as §1

KRAS G12C [12] = target: T12, KRAS G12C (Homo sapiens, UniProt P01116+P62937, G12C); assay: Ras-Raf disruption / FRET / MOA assay (BRAF RBD); assay type: biochemical; conditions: Ras-Raf disruption, with Cyclophilin A; read-out: KRAS G12C FRET data IC50
In short: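 His6-K-Ras G12C-GMPPNP (12.5 nM), GST-BRAF RBD (50 nM) and tagless Cyclophilin A (25 μM) incubated 3 h at 25 °C with compound (10-point 3-fold series from 30 μM), pH 7.3 HEPES buffer. Anti-His Eu/anti-GST APC added for 1.5 h; decreased TR-FRET ratio vs DMSO gives IC50.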
Target sequence in this assay (P01116 1-169 isoform P01116-2 G12C limits assumed): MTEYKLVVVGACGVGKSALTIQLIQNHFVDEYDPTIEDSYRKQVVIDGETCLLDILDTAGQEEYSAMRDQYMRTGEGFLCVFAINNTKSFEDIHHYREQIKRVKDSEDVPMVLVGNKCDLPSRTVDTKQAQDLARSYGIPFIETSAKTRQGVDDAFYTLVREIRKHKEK
Target sequence in this assay (P62937 whole entry): as the sequence (P62937 whole entry) above

Capan-1 (K-Ras G12V) = assay: CellTiter-Glo cell viability assay, 5-day treatment; assay type: cell-based; conditions: Homo sapiens, CAPAN-1, 120 h, 5-day treatment; read-out: Capan-1 Cell Viability assay data (K-Ras G12V, IC50)
In short: (§2)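 Compounds were dispensed directly onto seeded cells and incubated for 5 days, then plates were equilibrated to room temperature for about 30 minutes before luminescence reading. Signals were expressed as percent of the mean DMSO control and fitted with a four-parameter logistic curve.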

NCI-H358 (K-Ras G12C) = assay: as above; assay type: cell-based; conditions: Homo sapiens, NCI-H358, 120 h, 5-day treatment; read-out: H358 Cell Viability assay data (K-Ras G12C, IC50)
In short: as §2

KRAS G12C [13] = target: T12, KRAS G12C; assay: Disruption of BRAF RBD interaction with Ras (FRET / MOA assay, with Cyclophilin A); assay type: biochemical; conditions: read-out: KRAS G12C FRET data, IC50
In short: (§3)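 TR-FRET: nucleotide-loaded K-Ras mutant or WT with Cyclophilin A and BRAF RBD, compound 10-point 3-fold from 30 μM final, 3 h at 25° C, then anti-His Eu (10 nM) and anti-GST APC (50 nM) for 1.5 h. Decreased FRET ratio versus DMSO gives IC50.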
Target sequence in this assay (P01116 1-169 isoform P01116-2 G12C): as the sequence (P01116 1-169 isoform P01116-2 G12C limits assumed) above
Target sequence in this assay (P62937 whole entry): as the sequence (P62937 whole entry) above

KRAS G12D [14] = target: T1, KRAS G12D; assay: as above; assay type: biochemical; conditions: read-out: KRAS G12D FRET data, IC50
In short: as §3

KRAS G12S [15] = target: T2, KRAS G12S; assay: as above; assay type: biochemical; conditions: read-out: KRAS G12S FRET data, IC50
In short: as §3

KRAS G12V [16] = target: T3, KRAS G12V; assay: as above; assay type: biochemical; conditions: KRAS G12V; read-out: KRAS G12V FRET data IC50
In short: as §3

KRAS G13C [17] = target: T4, KRAS G13C; assay: as above; assay type: biochemical; conditions: read-out: KRAS G13C FRET data, IC50
In short: as §3
Target sequence in this assay (P01116 1-169 isoform P01116-2 G13C): as the sequence (P01116 1-169 isoform P01116-2 G13C limits assumed) above
Target sequence in this assay (P62937 whole entry): as the sequence (P62937 whole entry) above

KRAS G13D [18] = target: T5, KRAS G13D; assay: as above; assay type: biochemical; conditions: KRAS G13D; read-out: KRAS G13D FRET data IC50
In short: as §3

KRAS WT [19] = target: T7, KRAS WT; assay: as above; assay type: biochemical; conditions: KRAS WT; read-out: KRAS WT FRET data IC50
In short: as §3

NRAS G12C [20] = target: T8, NRAS G12C; assay: as above; assay type: biochemical; conditions: NRAS G12C; read-out: NRAS G12C FRET data IC50
KRAS Q61H [21] = target: T6, KRAS Q61H; assay: as above; assay type: biochemical; conditions: KRAS Q61H; read-out: KRAS Q61H FRET data IC50
In short: (§4)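 TR-FRET in 25 mM HEPES pH 7.3, 100 mM NaCl, 5 mM MgCl2, 0.1% BSA: 25 μM Cyclophilin A, 12.5 nM His6-Ras-GMPPNP, 50 nM GST-BRAF RBD with compound (10-point 3-fold series from 30 μM), 3 h at 25° C. Anti-His Eu/anti-GST APC added, 1.5 h more; IC50 from decreased FRET ratio versus DMSO.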

NRAS Q61K [22] = target: T9, NRAS Q61K; assay: as above; assay type: biochemical; conditions: NRAS Q61K; read-out: NRAS Q61K FRET data IC50
In short: as §4

NRAS Q61R [23] = target: T10, NRAS Q61R; assay: as above; assay type: biochemical; conditions: NRAS Q61R; read-out: NRAS Q61R FRET data IC50
In short: as §4

NRAS WT [24] = target: T11, NRAS WT; assay: as above; assay type: biochemical; conditions: NRAS WT; read-out: NRAS WT FRET data IC50
In short: as §4

T7 sequence (P01116 1-169 isoform P01116-2 limits assumed): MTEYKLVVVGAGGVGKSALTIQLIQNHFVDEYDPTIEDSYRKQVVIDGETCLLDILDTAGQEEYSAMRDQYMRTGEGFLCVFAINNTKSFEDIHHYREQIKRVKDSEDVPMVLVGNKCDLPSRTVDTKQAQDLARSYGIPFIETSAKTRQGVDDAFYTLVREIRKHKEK
T7 sequence (P62937 whole entry): as the sequence (P62937 whole entry) above
T11 sequence (P01111 whole entry): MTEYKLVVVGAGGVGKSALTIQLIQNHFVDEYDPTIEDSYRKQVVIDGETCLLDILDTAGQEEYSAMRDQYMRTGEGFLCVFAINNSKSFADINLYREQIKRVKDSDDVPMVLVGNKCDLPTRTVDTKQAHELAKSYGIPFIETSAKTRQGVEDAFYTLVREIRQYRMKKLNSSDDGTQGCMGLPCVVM
T11 sequence (P62937 whole entry): as the sequence (P62937 whole entry) above
T8 sequence (P01111 whole entry G12C): as the sequence (P01111 whole entry) above, with G12C counted along it
T8 sequence (P62937 whole entry): as the sequence (P62937 whole entry) above
T10 sequence (P01111 whole entry Q61R): as the sequence (P01111 whole entry) above, with Q61R counted along it
T10 sequence (P62937 whole entry): as the sequence (P62937 whole entry) above
T1 sequence (P01116 1-169 isoform P01116-2 G12D limits assumed): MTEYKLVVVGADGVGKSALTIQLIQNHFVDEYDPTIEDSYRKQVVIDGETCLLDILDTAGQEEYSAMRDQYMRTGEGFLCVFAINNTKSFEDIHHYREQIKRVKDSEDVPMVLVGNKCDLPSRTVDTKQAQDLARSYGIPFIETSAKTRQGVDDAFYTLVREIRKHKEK
T1 sequence (P62937 whole entry): as the sequence (P62937 whole entry) above
T9 sequence (P01111 whole entry Q61K): as the sequence (P01111 whole entry) above, with Q61K counted along it
T9 sequence (P62937 whole entry): as the sequence (P62937 whole entry) above
T5 sequence (P01116 1-169 isoform P01116-2 G13D limits assumed): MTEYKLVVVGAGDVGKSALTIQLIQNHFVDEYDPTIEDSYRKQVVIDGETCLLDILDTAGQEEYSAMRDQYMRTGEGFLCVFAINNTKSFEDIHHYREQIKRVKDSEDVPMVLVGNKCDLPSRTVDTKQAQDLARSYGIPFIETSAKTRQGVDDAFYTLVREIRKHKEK
T5 sequence (P62937 whole entry): as the sequence (P62937 whole entry) above
T2 sequence (P01116 1-169 isoform P01116-2 G12S limits assumed): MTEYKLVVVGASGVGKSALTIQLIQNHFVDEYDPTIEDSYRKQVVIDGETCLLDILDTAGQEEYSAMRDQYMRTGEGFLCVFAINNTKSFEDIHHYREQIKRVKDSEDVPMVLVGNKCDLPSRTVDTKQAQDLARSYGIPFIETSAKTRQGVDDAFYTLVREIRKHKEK
T2 sequence (P62937 whole entry): as the sequence (P62937 whole entry) above
T6 sequence (P01116 1-169 isoform P01116-2 Q61H limits assumed): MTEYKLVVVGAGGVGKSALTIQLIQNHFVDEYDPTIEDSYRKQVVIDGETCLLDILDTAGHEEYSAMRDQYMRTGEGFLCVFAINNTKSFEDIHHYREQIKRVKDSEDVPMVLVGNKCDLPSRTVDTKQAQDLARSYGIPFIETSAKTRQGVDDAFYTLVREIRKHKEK
T6 sequence (P62937 whole entry): as the sequence (P62937 whole entry) above
T3 sequence (P01116 1-169 isoform P01116-2 G12V limits assumed): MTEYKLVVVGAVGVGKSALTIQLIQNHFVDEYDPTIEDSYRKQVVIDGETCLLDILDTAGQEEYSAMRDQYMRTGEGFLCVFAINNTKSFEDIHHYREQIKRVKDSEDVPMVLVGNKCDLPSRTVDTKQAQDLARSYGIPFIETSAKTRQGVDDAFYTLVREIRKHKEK
T3 sequence (P62937 whole entry): as the sequence (P62937 whole entry) above

CCn1c(-c2cccnc2[C@H](C)OC)c2c3cc(ccc31)-c1cc(O)cc(c1)C[C@H](NC(=O)[C@H](C(C)C)N(C)C(=O)[C@H]1CCN(C(=O)C3(C)CO3)C1)C(=O)N1CCC[C@H](N1)C(=O)OCC(C)(C)C2 (stereo partly drawn) [Example 332]
pIC50 (KRAS G12D [1]): 6.00 to 7.00 | pIC50 (KRAS G12S [2]): 7.00 to 8.00 | pIC50 (KRAS G12V [3]): 7.00 to 8.00 | pIC50 (KRAS G13C [4]): 7.00 to 8.00 | pIC50 (KRAS G13D [5]): 7.00 to 8.00 | pIC50 (KRAS Q61H [6]): 7.00 to 8.00 | pIC50 (KRAS WT [7]): 7.00 to 8.00 | pIC50 (NRAS G12C [8]): 7.00 to 8.00 | pIC50 (NRAS Q61K [9]): 6.00 to 7.00 | pIC50 (NRAS Q61R [10]): 6.00 to 7.00 | pIC50 (NRAS WT [11]): 7.00 to 8.00 | pIC50 (KRAS G12C [12]): 7.00 to 8.00

CCn1c(-c2cccnc2[C@H](C)OC)c2c3cc(ccc31)-c1cccc(c1)C[C@H](NC(=O)[C@H](C1CCCC1)N1CC[C@]3(CCN(C(=O)[C@@H]4N[C@@H]4C4CC4)C3)C1=O)C(=O)N1CCC[C@H](N1)C(=O)OCC(C)(C)C2 [Example 313]
pIC50 (KRAS G12D [1]): 6.00 to 7.00 | pIC50 (KRAS G12S [2]): 5.00 to 6.00 | pIC50 (KRAS G12V [3]): 5.00 to 6.00 | pIC50 (KRAS G13C [4]): 6.00 to 7.00 | pIC50 (KRAS G13D [5]): 5.00 to 6.00 | pIC50 (KRAS WT [7]): 5.00 to 6.00 | pIC50 (NRAS G12C [8]): 6.00 to 7.00 | pIC50 (NRAS Q61K [9]): 5.00 to 6.00 | pIC50 (NRAS Q61R [10]): 5.00 to 6.00 | pIC50 (NRAS WT [11]): 5.00 to 6.00 | pIC50 (KRAS G12C [12]): 6.00 to 7.00

CCn1c(-c2cccnc2[C@H](C)OC)c2c3cc(ccc31)-c1csc(n1)C[C@H](NC(=O)[C@H](C(C)C)N(C)C(=O)N1CC(N(C)C(=O)[C@H]3CN3)C1)C(=O)N1CCC[C@H](N1)C(=O)OCC(C)(C)C2 [Example 218]
pIC50 (KRAS G12D [1]): 5.00 to 6.00 | pIC50 (KRAS G12S [2]): 6.00 to 7.00 | pIC50 (KRAS G12V [3]): 6.00 to 7.00 | pIC50 (KRAS G13C [4]): 6.00 to 7.00 | pIC50 (KRAS G13D [5]): 6.00 to 7.00 | pIC50 (KRAS Q61H [6]): 7.00 to 8.00 | pIC50 (KRAS WT [7]): 6.00 to 7.00 | pIC50 (NRAS G12C [8]): 7.00 to 8.00 | pIC50 (NRAS Q61K [9]): 7.00 to 8.00 | pIC50 (NRAS Q61R [10]): 6.00 to 7.00 | pIC50 (NRAS WT [11]): 6.00 to 7.00

CCn1c(-c2cccnc2[C@H](C)OC)c2c3cc(ccc31)-c1csc(n1)C[C@H](NC(=O)[C@H](C(C)C)N(C)C(=O)N1C3CC1CS(=O)(=O)C3)C(=O)N1CCC[C@H](N1)C(=O)OCC(C)(C)C2 [Example A496]
pIC50 (Capan-1 (K-Ras G12V)): 6.00 to 7.00 | pIC50 (NCI-H358 (K-Ras G12C)): 6.00 to 7.00 | pIC50 (KRAS G12C [13]): 6.00 to 7.00 | pIC50 (KRAS G12D [14]): 5.00 to 6.00 | pIC50 (KRAS G12S [15]): 5.00 to 6.00 | pIC50 (KRAS G12V [16]): 6.00 to 7.00 | pIC50 (KRAS G13C [17]): 5.00 to 6.00 | pIC50 (KRAS G13D [18]): 5.00 to 6.00 | pIC50 (KRAS WT [19]): 6.00 to 7.00 | pIC50 (NRAS G12C [20]): 6.00 to 7.00 | pIC50 (KRAS Q61H [21]): 6.00 to 7.00 | pIC50 (NRAS Q61K [22]): 6.00 to 7.00 | pIC50 (NRAS Q61R [23]): 5.00 to 6.00 | pIC50 (NRAS WT [24]): 6.00 to 7.00
